Source: US12673946B2, “Pyrimidin-4(3H)-one derivatives as TRPV4 antagonists” (RaQualia Pharma Inc., priority 2020, dated 2026)

Target: T1, human TRPV4 (Homo sapiens, UniProt Q9HBA0)
T1 construct: host or cells: tetracycline-inducible Flp-In T-REx 293 cells
Test: Hypotonicity-induced Ca2+ influx (Fluo-4, FDSS)
Format: cell-based
How it was run: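 Flp-In T-REx 293 cells with tetracycline-induced human TRPV4, loaded with Fluo-4 for 60 min at 25 °C. Compound added 5 min before hypotonic mannitol/CaCl2 solution. Ca2+ signal recorded for 4.5 min on FDSS.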

[1] = Flp-In T-REx 293 cells expressing human TRPV4, examples listed under heading 'Human IC50<50 nM'
[2] = Flp-In T-REx 293 cells stably expressing human TRPV4, compounds listed by potency bin (<10 nM Tables 96-1/96-2, <3 nM Table 97)

T1 sequence (Q9HBA0 whole entry): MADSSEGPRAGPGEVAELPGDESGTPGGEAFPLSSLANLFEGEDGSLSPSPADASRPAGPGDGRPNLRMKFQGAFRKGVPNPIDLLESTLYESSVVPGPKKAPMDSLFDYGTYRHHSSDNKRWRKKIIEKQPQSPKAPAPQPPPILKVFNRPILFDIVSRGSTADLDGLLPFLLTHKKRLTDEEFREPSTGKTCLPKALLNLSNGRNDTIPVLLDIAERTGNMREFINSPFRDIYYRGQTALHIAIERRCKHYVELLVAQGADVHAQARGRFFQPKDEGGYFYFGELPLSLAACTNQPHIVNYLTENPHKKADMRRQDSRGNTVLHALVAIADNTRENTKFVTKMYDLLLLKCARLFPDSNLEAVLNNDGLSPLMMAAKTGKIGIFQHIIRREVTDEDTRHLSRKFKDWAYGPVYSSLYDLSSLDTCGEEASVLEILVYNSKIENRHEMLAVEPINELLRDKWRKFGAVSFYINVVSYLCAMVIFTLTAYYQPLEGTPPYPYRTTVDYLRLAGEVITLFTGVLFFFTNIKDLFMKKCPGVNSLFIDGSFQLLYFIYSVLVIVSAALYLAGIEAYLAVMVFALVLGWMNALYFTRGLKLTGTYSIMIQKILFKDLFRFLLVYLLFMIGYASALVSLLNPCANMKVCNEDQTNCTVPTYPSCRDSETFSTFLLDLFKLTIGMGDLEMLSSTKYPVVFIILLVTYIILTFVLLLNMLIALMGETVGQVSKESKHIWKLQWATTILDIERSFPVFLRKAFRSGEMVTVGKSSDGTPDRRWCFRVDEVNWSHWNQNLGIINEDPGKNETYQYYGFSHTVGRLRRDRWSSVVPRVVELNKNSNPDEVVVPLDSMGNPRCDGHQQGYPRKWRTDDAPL

IC50 [1] [nM] | IC50 [2] [nM] | Compound
< 50 | < 3 | O=C([C@H](O)c1cccc(C(F)(F)F)c1)N1CCCc2nc(C3(c4cccc(-c5cnc(N6CCCC6)nc5)c4)CC3)[nH]c(=O)c2C1 [42-3]
< 50 | – | O=C([C@H](O)c1cccc(C(F)(F)F)c1)N1CCc2nc(C3(c4cc(C5CCOCC5)cs4)CC3)[nH]c(=O)c2C1 [26-2]
< 50 | < 10 | O=C(C(O)c1cccc(-c2cnc3ccccc3c2)c1)N1CCCc2nc(C3(c4cccc(Cl)c4)CC3)[nH]c(=O)c2C1 (centres unmarked) [17-19]
< 50 | < 10 | O=C([C@H](O)c1cccc(-c2ccc(OCc3ccccc3)nc2)c1)N1CCc2nc(C3(c4ccccc4)CC3)[nH]c(=O)c2C1 [44-83]
< 50 | – | N#Cc1cccc(-c2cccc(C(O)C(=O)N3CCc4nc(C5(c6ccccc6)CC5)[nH]c(=O)c4C3)c2)c1 (centres unmarked) [44-32]
< 50 | < 10 | O=C([C@H](O)c1cccc(-c2cccc(F)c2)c1)N1CCCc2nc(C3(c4cccc(C5CCCCC5)c4)CC3)[nH]c(=O)c2C1 [52-1]
< 50 | – | O=C([C@H](O)c1cccc(Cl)c1)N1CCc2nc(C3(c4ccc(F)cc4)CC3)[nH]c(=O)c2C1 [3-22]
< 50 | < 10 | CC(C)c1csc(C2(c3nc4c(c(=O)[nH]3)CN(C(=O)C(O)c3cccc(C(F)(F)F)c3F)CC4)CC2)c1 (centres unmarked) [15-26]
< 50 | < 10 | CC(C)(C)c1cccc(C(O)C(=O)N2CCCc3nc(C4(c5cccs5)CC4)[nH]c(=O)c3C2)c1 (centres unmarked) [18-7]
< 50 | < 3 | CC(C)c1cccc(C2(c3nc4c(c(=O)[nH]3)CN(C(=O)C(O)c3cccc(C(C)(C)C)c3)CCC4)CC2)c1 (centres unmarked) [17-8]
< 50 | – | O=C(C(O)c1cc(Cl)cc(Cl)c1)N1CCc2nc(C3(c4ccccc4)CC3)[nH]c(=O)c2C1 (centres unmarked) [3-62]
< 50 | < 3 | N#Cc1cccc(-c2cccc(C3(c4nc5c(c(=O)[nH]4)CN(C(=O)[C@H](O)c4cccc(C(F)(F)F)c4)CCC5)CC3)c2)c1 [42-5]
< 50 | < 3 | O=C([C@H](O)c1cccc(-c2cccc(OC(F)(F)F)c2)c1)N1CCCc2nc(C3(c4ccccc4)CC3)[nH]c(=O)c2C1 [49-14]
< 50 | < 10 | O=C([C@H](O)c1cccc(C(F)(F)F)c1)N1CCCc2nc(C3(c4cccc(-c5cnco5)c4)CC3)[nH]c(=O)c2C1 [42-30]
< 50 | – | CC(C)c1cccc(C2(c3nc4c(c(=O)[nH]3)CN(C(=O)Cc3cccc(-c5cccc(Cl)c5)c3)CC4)CC2)c1 [27-5]
< 50 | < 10 | O=C(C(O)c1cccc(C(F)(F)F)c1F)N1CCc2nc(C3(c4cncc(-c5ccccc5)c4)CC3)[nH]c(=O)c2C1 (centres unmarked) [16-2]
< 50 | < 10 | O=C([C@H](O)c1cccc(-c2csc3ccccc23)c1)N1CCCc2nc(C3(c4cccc(Cl)c4)CC3)[nH]c(=O)c2C1 [50-1]
< 50 | < 10 | O=C([C@H](O)c1cccc(Cl)c1)N1CCc2nc(C3(c4cncc(C5CCCCC5)c4)CC3)[nH]c(=O)c2C1 [25-2]
< 50 | < 3 | CC(C)Oc1cccc(-c2cccc([C@@H](O)C(=O)N3CCCc4nc(C5(c6ccccc6)CC5)[nH]c(=O)c4C3)c2)c1 [49-45]
< 50 | < 3 | O=C(N1CCCc2nc(C3(c4cccc(Cl)c4)CC3)[nH]c(=O)c2C1)C(F)(F)c1cccc(Cl)c1 [20-2]
< 50 | < 3 | O=C([C@H](O)c1cccc(-c2cnc3ccccc3c2)c1)N1CCc2nc(C3(c4ccccc4)CC3)[nH]c(=O)c2C1 [44-81]
< 50 | – | O=C([C@H](O)c1cccc(C(F)(F)F)c1)N1CCc2nc(C3(c4cncc(C5CCOCC5)c4)CC3)[nH]c(=O)c2C1 [28-5]
< 50 | < 3 | Cn1ncc2cc(-c3cccc(C4(c5nc6c(c(=O)[nH]5)CN(C(=O)[C@H](O)c5cccc(Cl)c5)CCC6)CC4)c3)ccc21 [40-12]
< 50 | < 10 | O=C(C(O)c1cccc(-c2cc(C(F)(F)F)cc(C(F)(F)F)c2)c1)N1CCCc2nc(C3(c4ccccc4)CC3)[nH]c(=O)c2C1 (centres unmarked) [49-2]
< 50 | < 3 | CC(C)Oc1cccc(-c2cccc([C@@H](O)C(=O)N3CCc4nc(C5(c6ccccc6)CC5)[nH]c(=O)c4C3)c2)c1 [44-104]
< 50 | < 10 | O=C([C@H](O)c1cccc(C(F)(F)F)c1)N1CCc2nc(C3(c4cccc(Oc5ccccc5)c4)CC3)[nH]c(=O)c2C1 [14-2]

IC50 [1] [nM] | IC50 [2] [nM] | Compound
< 50 | – | O=C(C(O)c1cccc(S(F)(F)(F)(F)F)c1)N1CCc2nc(C3(c4cccc(Cl)c4)CC3)[nH]c(=O)c2C1 (centres unmarked) [14-17]
< 50 | – | O=C([C@H](O)c1cccc(Cl)c1)N1CCCc2nc(C3(c4cccs4)CC3)[nH]c(=O)c2C1 [18-12]
< 50 | < 10 | CC(C)(C)c1cccc(-c2cccc([C@@H](O)C(=O)N3CCCc4nc(C5(c6cccc(Cl)c6)CC5)[nH]c(=O)c4C3)c2)c1 [50-7]
< 50 | < 10 | CC(C)(C)c1cccc(-c2cccc([C@@H](O)C(=O)N3CCCc4c(nc(C5(c6ccccc6)CC5)[nH]c4=O)C3)c2)c1 [49-55]
< 50 | < 10 | CC(C)c1cccc(C2(c3nc4c(c(=O)[nH]3)CN(C(=O)[C@H](O)c3cccc(-c5cccc(C(C)(C)C)c5)c3)CCC4)CC2)c1 [51-5]
< 50 | < 10 | O=C([C@H](O)c1cccc(C(F)(F)F)c1)N1CCCc2nc(C3(c4cccc(-c5ccncc5)c4)CC3)[nH]c(=O)c2C1 [42-17]
< 50 | < 3 | O=C(N1CCCc2nc(C3(c4cncc(-c5ccccc5)c4)CC3)[nH]c(=O)c2C1)C(F)(F)c1cccc(C(F)(F)F)c1 [22-4]
< 50 | < 10 | CC(C)c1cncc(C2(c3nc4c(c(=O)[nH]3)CN(C(=O)[C@H](O)c3cccc(-c5cccc(C(F)(F)F)c5)c3)CCC4)CC2)c1 [55-5]
< 50 | < 3 | CC(C)c1csc(C2(c3nc4c(c(=O)[nH]3)CN(C(=O)[C@H](O)c3cccc(C(F)(F)F)c3)CCC4)CC2)c1 [18-1]
< 50 | < 10 | CC(C)c1csc(C2(c3nc4c(c(=O)[nH]3)CN(C(=O)Cc3cccc(-c5cccc(C(F)(F)F)c5)c3)CCC4)CC2)c1 [18-29]
< 50 | – | CC(C)c1cccc(C2(c3nc4c(c(=O)[nH]3)CN(C(=O)C(F)(F)c3cccc(C(F)(F)F)c3)CC4)CC2)c1 [20-13]
< 50 | < 10 | O=C([C@H](O)c1cccc(-c2cccc(C(F)(F)F)c2)c1)N1CCCc2nc(C3(c4cccc(-c5csc6ccccc56)c4)CC3)[nH]c(=O)c2C1 [52-9]
< 50 | < 10 | O=C([C@H](O)c1cccc(Cl)c1)N1CCCc2nc(C3(c4cccc(Cl)c4)CC3)[nH]c(=O)c2C1 [17-29]
< 50 | < 3 | CC(C)c1csc(C2(c3nc4c(c(=O)[nH]3)CN(C(=O)[C@H](O)c3cccc(Cl)c3)CCC4)CC2)c1 [18-24]
< 50 | < 10 | CC(C)c1cccc(C2(c3nc4c(c(=O)[nH]3)CN(C(=O)C(O)c3cccc(C(F)(F)F)c3F)CC4)CC2)c1 (centres unmarked) [14-109]
< 50 | < 10 | O=C([C@H](O)c1cccc(C(F)(F)F)c1)N1CCCc2nc(C3(c4cccc(Cl)c4)CC3)[nH]c(=O)c2C1 [17-12]
< 50 | < 10 | O=C(Cc1cccc(-c2ccc(C(F)(F)F)cc2)c1)N1CCCc2nc(C3(c4cccc(Cl)c4)CC3)[nH]c(=O)c2C1 [17-128]
< 50 | – | O=C([C@H](O)c1cccc(C(F)(F)F)c1)N1CCCc2nc(C3(c4ccnc(Oc5ccccc5)c4)CC3)[nH]c(=O)c2C1 [19-8]
< 50 | – | Cn1cc(-c2cccc(C3(c4nc5c(c(=O)[nH]4)CN(C(=O)[C@H](O)c4cccc(C(F)(F)F)c4)CCC5)CC3)c2)ccc1=O [42-38]
< 50 | < 10 | CC(C)(C)c1cccc(-c2cccc([C@@H](O)C(=O)N3CCCc4nc(C5(c6cccs6)CC5)[nH]c(=O)c4C3)c2)c1 [53-4]
< 50 | – | O=C([C@H](O)c1cccc(-c2ccc3cnccc3c2)c1)N1CCc2nc(C3(c4ccccc4)CC3)[nH]c(=O)c2C1 [44-89]
< 50 | < 3 | CC(C)(C)c1cccc(-c2cccc([C@@H](O)C(=O)N3CCCc4nc(C5(c6ccccc6)CC5)[nH]c(=O)c4C3)c2)c1 [49-16]
< 50 | – | COc1ccc(-c2cccc(C(O)C(=O)N3CCc4nc(C5(c6ccccc6)CC5)[nH]c(=O)c4C3)c2)cc1 (centres unmarked) [44-58]
< 50 | – | Cn1ccc(-c2cccc(C3(c4nc5c(c(=O)[nH]4)CN(C(=O)[C@H](O)c4cccc(C(F)(F)F)c4)CCC5)CC3)c2)n1 [42-34]
< 50 | – | O=C(C(O)c1cccc(-c2ccc(C(F)F)cc2)c1)N1CCc2nc(C3(c4ccccc4)CC3)[nH]c(=O)c2C1 (centres unmarked) [44-31]
< 50 | < 3 | O=C([C@H](O)c1cccc(C(F)(F)F)c1)N1CCCc2nc(C3(c4cccc(-c5cccnc5)c4)CC3)[nH]c(=O)c2C1 [42-8]
